# Source: patent publication US12459951B2, “Compounds that interact with RAS superfamily proteins for treatment of cancers, inflammatory diseases, rasopathies, and fibrotic disease” (SHY Therapeutics, LLC, priority 2022, dated 2025)
# Key:
# [1] = tested on: IL6; experiment: IL-6 Quantification Assay (ELISA), LPS-stimulated RAW 264.7; type: cell-based; design: inhibition: dose or concentration left out as unconfirmed; conditions: Mus musculus, RAW264.7, read-out: IL-6: % inh.
# [2] = tested on: MAPK p38 phosphorylation; experiment: MAPK p38 Activation Assay (western blot), Panc-1; type: cell-based, human; conditions: at 10 μM, Panc-1 pancreatic cancer cell line; starred symbols = activation
# Outline: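 Panc-1 cells (KRas G12D) were treated with compound for 6 h at 37 °C, at 10 μM or as serial dilutions for IC50, with 0.3% DMSO. Method 1 used overnight serum-starved cells (0.5% FBS) stimulated with 1.5 ng/ml EGF for 15 min; Method 2 used unstimulated cells in 10% FBS. Phospho-p38 (Thr180/Tyr182) was detected by western blot.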
# [3] = tested on: Erk1/2 phosphorylation; experiment: Erk1/2 Phosphorylation Assay (western blot), Panc-1; type: cell-based, human; conditions: at 10 μM, * = activation
# Outline: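 KRas G12D Panc-1 cells were treated 6 h at 37° C with compound at 10 μM or serial dilutions for IC50 (0.3% DMSO). In method 1, cells were serum-starved overnight (0.5% FBS) and then given 1.5 ng/ml EGF for 15 min. In method 2, cells stayed in 10% FBS without stimulation. Lysate phospho-Erk1/2 (Thr202/Tyr204) was read by western blot.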
Structure (SMILES),inhibition [1] [%],% inh of MAPK p38 in Panc-1 [2],% inh of Erk1/2 phosphorylation in Panc-1 [3],inhibition at 10 µM [1] [%]
"COc1cc(Nc2nc(-c3nccn3C)nn3cc(-c4ccn(C)n4)c(C)c23)ncn1 [Compound 63, N-(6-Methoxypyrimidin-4-yl)-5-methyl-2-(1-methyl-1H-imidazol-2-yl)-6-(1-methyl-1H-pyrazol-3-yl)pyrrolo[2,1-f][1,2,4]triazin-4-amine]",1 to 24,H* (H* ≥ 100% activation),A (1-25% inhibition),–
"CO[C@H]1CC[C@@H](Nc2nc(-c3nccn3C)nn3cc(-c4ccn(C(C)C)n4)c(C(C)C)c23)C1 (racemic) [Compound 36, rac 5-Isopropyl-6-(1-isopropyl-1H-pyrazol-3-yl)-N-((1R,3S)-3-methoxycyclopentyl)-2-(1-methyl-1H-imidazol-2-yl)pyrrolo[2,1-f][1,2,4]triazin-4-amine]",50 to 74,H* (H* ≥ 100% activation),C (50-84% inhibition),–
"COCCO[C@H]1C[C@H](Nc2nc(-c3nccn3C)nn3cc(-c4cccc(OC)c4F)c(-c4ccccc4)c23)C1 [Compound 44, 6-(2-Fluoro-3-methoxyphenyl)-N-((1r,3r)-3-(2-methoxyethoxy)cyclobutyl)-2-(1-methyl-1H-imidazol-2-yl)-5-phenylpyrrolo[2,1-f][1,2,4]triazin-4-amine]",25 to 49,H* (H* ≥ 100% activation),B (26-49% inhibition),–
"COc1cccc(-c2cn3nc(-c4nccn4C)nc(N[C@H]4C[C@H](OC)C4)c3c2-c2ccccn2)c1F [Compound 45, 6-(2-Fluoro-3-methoxyphenyl)-N-((1r,3r)-3-methoxycyclobutyl)-2-(1-methyl-1H-imidazol-2-yl)-5-(pyridin-2-yl)pyrrolo[2,1-f][1,2,4]triazin-4-amine]",–,H* (H* ≥ 100% activation),0 (0% inhibition),75 to 100
"COc1cnc(Nc2nc(-c3nccn3C)nn3cc(-c4ccn(C(C)C)n4)c(C)c23)nc1 [Compound 56, 6-(1-Isopropyl-1H-pyrazol-3-yl)-N-(5-methoxypyrimidin-2-yl)-5-methyl-2-(1-methyl-1H-imidazol-2-yl)pyrrolo[2,1-f][1,2,4]triazin-4-amine]",25 to 49,H* (H* ≥ 100% activation),C (50-84% inhibition),–
"COc1ccnc(Nc2nc(-c3nccn3C)nn3cc(-c4ccn(C(C)C)n4)c(C)c23)n1 [Compound 53, 6-(1-Isopropyl-1H-pyrazol-3-yl)-N-(4-methoxypyrimidin-2-yl)-5-methyl-2-(1-methyl-1H-imidazol-2-yl)pyrrolo[2,1-f][1,2,4]triazin-4-amine]",50 to 74,H* (H* ≥ 100% activation),D (85-100% inhibition),–
"COc1ccnc(Nc2nc(-c3nccn3C)nn3cc(-c4ccn(C(C)C)n4)c(C)c23)c1 [Compound 58, 6-(1-Isopropyl-1H-pyrazol-3-yl)-N-(4-methoxypyridin-2-yl)-5-methyl-2-(1-methyl-1H-imidazol-2-yl)pyrrolo[2,1-f][1,2,4]triazin-4-amine]",25 to 49,G* (G* = 75-99% activation),D (85-100% inhibition),–
"Cc1c(-c2ccn(C(C)C)n2)cn2nc(-c3nccn3C)nc(Nc3ncco3)c12 [Compound 60, N-(6-(1-Isopropyl-1H-pyrazol-3-yl)-5-methyl-2-(1-methyl-1H-imidazol-2-yl)pyrrolo[2,1-f][1,2,4]triazin-4-yl)oxazol-2-amine]",0,H* (H* ≥ 100% activation),A (1-25% inhibition),–
"Cc1c(-c2ccn(C(C)C)n2)cn2nc(-c3nccn3C)nc(Nc3ccncn3)c12 [Compound 55, 6-(1-Isopropyl-1H-pyrazol-3-yl)-5-methyl-2-(1-methyl-1H-imidazol-2-yl)-N-(pyrimidin-4-yl)pyrrolo[2,1-f][1,2,4]triazin-4-amine]",1 to 24,H* (H* ≥ 100% activation),A (1-25% inhibition),–
"COc1cccc(-c2cn3nc(-c4nccn4C)nc(N[C@@H]4CC[C@H](OC)C4)c3c2-c2ccccc2)c1Cl (racemic) [Compound 33, rac 6-(2-Chloro-3-methoxyphenyl)-N-((1R,3S)-3-methoxycyclopentyl)-2-(1-methyl-1H-imidazol-2-yl)-5-phenylpyrrolo[2,1-f][1,2,4]triazin-4-amine]",–,H (H = 100% inhibition),D (85-100% inhibition),75 to 100
"COCC1CCN(c2nc(-c3ccccn3)nn3cc(-c4ccn(C(C)C)n4)c(-c4ccccc4)c23)C1 (racemic) [Compound 25, rac 6-(1-Isopropyl-1H-pyrazol-3-yl)-4-(3-(methoxymethyl)pyrrolidin-1-yl)-5-phenyl-2-(pyridin-2-yl)pyrrolo[2,1-f][1,2,4]triazine]",1 to 24,H* (H* ≥ 100% activation),0 (0% inhibition),–
"COCCCNc1nc(-c2nccn2C)nn2cc(-c3cccc(OC)c3Cl)c(-c3ccccc3)c12 [Compound 30, 6-(2-Chloro-3-methoxyphenyl)-N-(3-methoxypropyl)-2-(1-methyl-1H-imidazol-2-yl)-5-phenylpyrrolo[2,1-f][1,2,4]triazin-4-amine]",75 to 100,F (F = 31-74% inhibition),D (85-100% inhibition),–
"Cc1c(-c2ccn(C)n2)cn2nc(-c3nccn3C)nc(Nc3ccc(N4CCOCC4)cn3)c12 [Compound 247, 5-Methyl-2-(1-methyl-1H-imidazol-2-yl)-6-(1-methyl-1H-pyrazol-3-yl)-N-(5-morpholinopyridin-2-yl)pyrrolo[2,1-f][1,2,4]triazin-4-amine]",75 to 100,–,D* (85-100% activation),–
"Cc1c(-c2ccn(C)n2)cn2nc(-c3nccn3C)nc(Nc3cc(C(F)F)[nH]n3)c12 [Compound 258, N-(5-(Difluoromethyl)-1H-pyrazol-3-yl)-5-methyl-2-(1-methyl-1H-imidazol-2-yl)-6-(1-methyl-1H-pyrazol-3-yl)pyrrolo[2,1-f][1,2,4]triazin-4-amine]",0,–,A* (1-25% activation),–
"Cc1c(-c2ccn(C)n2)cn2nc(-c3nccn3C)nc(Nc3cc(-c4ccccn4)ccn3)c12 [Compound 248, N-([2,4′-Bipyridin]-2′-yl)-5-methyl-2-(1-methyl-1H-imidazol-2-yl)-6-(1-methyl-1H-pyrazol-3-yl)pyrrolo[2,1-f][1,2,4]triazin-4-amine]",75 to 100,–,C* (46-84% activation),–
"Cc1c(-c2ccn(C(C)C)n2)cn2nc(-c3nccn3C)nc(Nc3cc(C4CC4)n[nH]3)c12 [Compound 68, N-(3-Cyclopropyl-1H-pyrazol-5-yl)-6-(1-isopropyl-1H-pyrazol-3-yl)-5-methyl-2-(1-methyl-1H-imidazol-2-yl)pyrrolo[2,1-f][1,2,4]triazin-4-amine]",1 to 24,–,D* (85-100% activation),–
"Cn1ccnc1-c1nc(OCCN2CCCC2)c2c(-c3ccccc3)ccn2n1 [Compound 41, 2-(1-Methyl-1H-imidazol-2-yl)-5-phenyl-4-(2-(pyrrolidin-1-yl)ethoxy)pyrrolo[2,1-f][1,2,4]triazine]",1 to 24,–,0 (0% inhibition),–
"Cc1c(-c2ccn(C)n2)cn2nc(-c3nccn3C)nc(Nc3cc(-n4ccnc4C)ccn3)c12 [Compound 246, 5-Methyl-N-(4-(2-methyl-1H-imidazol-1-yl)pyridin-2-yl)-2-(1-methyl-1H-imidazol-2-yl)-6-(1-methyl-1H-pyrazol-3-yl)pyrrolo[2,1-f][1,2,4]triazin-4-amine]",25 to 49,–,0 (0% inhibition),–
"Cc1c(-c2ccn(C)n2)cn2nc(-c3nccn3C)nc(Nc3cc(-c4cccnc4)ccn3)c12 [Compound 250, N-([3,4′-Bipyridin]-2′-yl)-5-methyl-2-(1-methyl-1H-imidazol-2-yl)-6-(1-methyl-1H-pyrazol-3-yl)pyrrolo[2,1-f][1,2,4]triazin-4-amine]",75 to 100,–,C* (46-84% activation),–
"Cc1c(-c2ccn(C)n2)cn2nc(-c3nccn3C)nc(Nc3cc(C(F)(F)F)[nH]n3)c12 [Compound 259, 5-Methyl-2-(1-methyl-1H-imidazol-2-yl)-6-(1-methyl-1H-pyrazol-3-yl)-N-(5-(trifluoromethyl)-1H-pyrazol-3-yl)pyrrolo[2,1-f][1,2,4]triazin-4-amine]",50 to 74,–,A* (1-25% activation),–
